Converted amounts (≈) assume the structure as drawn. Like-named read-outs stand apart in the source and are kept apart here.
Columns and labels:
Format in all cases: cell-based
[1] = test system: M. avium (ATCC 25291); assay: MIC against M. avium in CAMHB + ADC; details: Mycobacterium avium
[2] = test system: M. xenopi (ATCC 19250); assay: MIC against M. xenopi in CAMHB + ADC; details: Mycobacterium xenopi
[3] = test system: M. kansasii (ATCC 12478); assay: MIC against M. kansasii in CAMHB + ADC; details: Mycobacterium kansasii
[4] = test system: A. baumannii (HUMC1 strain); assay: MIC by broth microdilution against A. baumannii in RPMI + 10% FCS; details: Acinetobacter baumannii, read-out: MIC A. baumannii
[5] = test system: S. aureus (UAMS-1625 strain); assay: MIC by broth microdilution against S. aureus; details: Staphylococcus aureus, read-out: MIC S. aureus
[6] = test system: M. abscessus subsp. abscessus ATCC 19977; assay: MIC against M. abscessus in Middlebrook 7H9 + ADC; details: Mycobacteroides abscessus
[7] = ATCC19250, read-out: MIC M. xenopi
[8] = ATCC19977, read-out: MIC M. abscessus
[9] = ATCC25291, ATCC 25291, CAMHB + ADC (5%), read-out: MIC M. avium
[10] = ATCC12478, ATCC 12478, CAMHB + ADC (5%), read-out: MIC M. kansasii
[11] = ATCC19250, ATCC 19250, CAMHB + ADC (5%), read-out: MIC M. xenopi
[12] = ATCC19977, ATCC 19977, 7H9 + ADC, read-out: MIC M. abscessus

Structure (SMILES)	MIC ([1]; ATCC25291, read-out: MIC M. avium) [µg/mL]	MIC [2, 7] [µg/mL]	MIC ([3]; ATCC12478, read-out: MIC M. kansasii) [µg/mL]	MIC [4] [µg/mL]	MIC [5] [µg/mL]	MIC [6, 8] [µg/mL]	MIC [1, 9] [µg/mL]	MIC [3, 10] [µg/mL]	MIC ([4]; HUMC1 strain, RPMI + 10% FCS) [µg/mL]	MIC [2, 11] [µg/mL]	MIC [6, 12] [µg/mL]
CO[C@H]1/C=C/O[C@@]2(C)Oc3c(C)c(O)c4c(c3C2=O)C2=NC3(CCN(CC(C)C)CC3)NC2=C(NC(=O)/C(C)=C\C=C\[C@H](C)[C@H](O)[C@@H](C)[C@@H](O)[C@@H](C)[C@H](OC(=O)CC(=O)N2CCC(Nc3cccnc3)CC2)[C@@H]1C)C4=O [Compound 109]	1	0.25	0.03	0.004	0.06 (≈ 0.0571 µM)	0.25	–	–	–	–	–
CO[C@H]1/C=C/O[C@@]2(C)Oc3c(C)c(O)c4c(c3C2=O)C2=NC3(CCN(CC(C)C)CC3)NC2=C(NC(=O)/C(C)=C\C=C\[C@H](C)[C@H](O)[C@@H](C)[C@@H](O)[C@@H](C)[C@H](OC(=O)CC(=O)N2CCC(Nc3ccncc3Cl)CC2)[C@@H]1C)C4=O [Compound 110]	–	0.125	–	–	0.125 (≈ 0.115 µM)	0.125	0.25	0.008	0.06	–	–
CO[C@H]1/C=C/O[C@@]2(C)Oc3c(C)c(O)c4c(c3C2=O)C2=NC3(CCN(CC(C)C)CC3)NC2=C(NC(=O)/C(C)=C\C=C\[C@H](C)[C@H](O)[C@@H](C)[C@@H](O)[C@@H](C)[C@H](OC(=O)CC(=O)N2CCN(c3ccncc3)CC2)[C@@H]1C)C4=O [Compound 116]	–	–	–	–	0.06 (≈ 0.0579 µM)	–	2	0.06	≤ 0.002	1	0.25
CO[C@H]1/C=C/O[C@@]2(C)Oc3c(C)c(O)c4c(c3C2=O)C2=NC3(CCN(CC(C)C)CC3)NC2=C(NC(=O)/C(C)=C\C=C\[C@H](C)[C@H](O)[C@@H](C)[C@@H](O)[C@@H](C)[C@H](OC(=O)CC(=O)N2CCN(c3ncccn3)CC2)[C@@H]1C)C4=O [Compound 117]	–	–	–	–	0.03 (≈ 0.0289 µM)	–	0.25	0.004	≤ 0.002	0.125	0.125
CO[C@H]1/C=C/O[C@@]2(C)Oc3c(C)c(O)c4c(c3C2=O)C2=NC3(CCN(CC(C)C)CC3)NC2=C(NC(=O)/C(C)=C\C=C\[C@H](C)[C@H](O)[C@@H](C)[C@@H](O)[C@@H](C)[C@H](OC(=O)CC(=O)N2CCN(Cc3ccccn3)CC2)[C@@H]1C)C4=O [Compound 118]	–	–	–	–	0.06 (≈ 0.0571 µM)	–	2	0.03	≤ 0.002	0.25	0.25
CO[C@H]1/C=C/O[C@@]2(C)Oc3c(C)c(O)c4c(c3C2=O)C2=NC3(CCN(CC(C)C)CC3)NC2=C(NC(=O)/C(C)=C\C=C\[C@H](C)[C@H](O)[C@@H](C)[C@@H](O)[C@@H](C)[C@H](OC(=O)CC(=O)N2CCN(Cc3ccncc3)CC2)[C@@H]1C)C4=O [Compound 119]	–	–	–	–	0.016 (≈ 0.0152 µM)	–	1	0.008	≤ 0.002	0.25	0.25
CO[C@H]1/C=C/O[C@@]2(C)Oc3c(C)c(O)c4c(c3C2=O)C2=NC3(CCN(CC(C)C)CC3)NC2=C(NC(=O)/C(C)=C\C=C\[C@H](C)[C@H](O)[C@@H](C)[C@@H](O)[C@@H](C)[C@H](OC(=O)CC(=O)N2CCCN(C)CC2)[C@@H]1C)C4=O [Compound 120]	–	–	–	–	0.06 (≈ 0.0608 µM)	–	2	0.25	0.06	1	0.25
CO[C@H]1/C=C/O[C@@]2(C)Oc3c(C)c(O)c4c(c3C2=O)C2=NC3(CCN(CC(C)C)CC3)NC2=C(NC(=O)/C(C)=C\C=C\[C@H](C)[C@H](O)[C@@H](C)[C@@H](O)[C@@H](C)[C@H](OC(=O)CC(=O)N2CCCN(c3ccccn3)CC2)[C@@H]1C)C4=O [Compound 122]	–	–	–	–	0.06 (≈ 0.0571 µM)	–	0.125	0.002	≤ 0.002	0.03	0.125
CO[C@H]1/C=C/O[C@@]2(C)Oc3c(C)c(O)c4c(c3C2=O)C2=NC3(CCN(CC(C)C)CC3)NC2=C(NC(=O)/C(C)=C\C=C\[C@H](C)[C@H](O)[C@@H](C)[C@@H](O)[C@@H](C)[C@H](OC(=O)CC(=O)N2CCCN(c3cccc(C(F)(F)F)n3)CC2)[C@@H]1C)C4=O [Compound 123]	–	–	–	–	0.5 (≈ 0.447 µM)	–	0.06	0.008	0.25	0.125	0.25
CO[C@H]1/C=C/O[C@@]2(C)Oc3c(C)c(O)c4c(c3C2=O)C2=NC3(CCN(CC(C)C)CC3)NC2=C(NC(=O)/C(C)=C\C=C\[C@H](C)[C@H](O)[C@@H](C)[C@@H](O)[C@@H](C)[C@H](OC(=O)CC(=O)N2CCCN(c3ncccn3)CC2)[C@@H]1C)C4=O [Compound 124]	–	–	–	–	0.03 (≈ 0.0285 µM)	–	0.125	0.008	≤ 0.002	0.125	0.125
